The values that follow are results of earlier work, collected in US20020146399A1, “Sorbic acid product comprising probiotics as addition to feedstuffs in agricultural livestock rearing” (priority 2001, published 2002).

Molecules are shown by their SMILES.

For data set [1] the following is noted: extensive data and decades of use in human food and animal feeds.

Regarding `C/C=C/C=C/C(=O)O` [Sorbic acid, trans,trans-2,4-hexadienoic acid], the “solubility in cold water” value is reported as “dissolves only slightly”. For the same molecule, the toxicity entry in data set [1] was “virtually nontoxic”.
